Source: patent publication US20100016434A1, “Inhibitors of Egln3 Activity for the Treatment of Neurodegenerative Disorders” (priority 2005, published 2010)

Experiments:
PC12 cells [1] = experiment: Apoptosis after NGF withdrawal in differentiated PC12 cells (GFP-Histone nuclei scoring); format: cell-based, rat
Procedure: FIG. 5: (A) Anti-SM20/EGLN3 immunoblot analysis of PC12 cells treated as in FIG. 3A. SM-20 in vitro translate included in lane 1 as a control. (B and D) Representative fluorescent photomicrographs (B) and anti-HA immunoblot analysis (D) of PC12 cells transfected to produce GFP-Histone and the indicated HA-EGLN species. White arrows in […] indicate apoptotic nuclei. (C) Percent of GFP-positive nuclei with apoptotic changes after transfection with 0.5 or 1.0 μg of the indicated plasmids. (E and F) Representative fluorescent photomicrographs of PC12 cells transfected with the indicated siRNAs and a plasmid encoding GFP-Histone followed by treatment with NGF for […] (‘+NGF’), which was then withdrawn for 24 hours (‘−NGF’). White arrows indicate apoptotic nuclei, which were quantitated in (E) as percent of GFP-positive nuclei. (G and H) Representative fluorescent photomicrographs (F) of PC12 cells transfected to produce GFP-Histone and treated with NGF for 5 days (‘+NGF’), which was then withdrawn for 24 hours (‘−NGF’). Where indicated cells were exposed to 100 μM CoCl2 or 1% hypoxia during NGF withdrawal. White arrows indicate apoptotic nuclei, which were quantitated in (G) as % of GFP-positive nuclei.
(§1) (B) FACS profiles of PC12 cells stained with the ROS-sensitive dye CM-H2DCFDA after treatment with the indicated SDH inhibitors or the ROS-inducing agent Rotenone (Ro; 20 μM) in the presence or absence of the ROS scavenger ascorbic acid (AA; 100 μM). C=control. (C and D) Representive fluorescent photomicrographs of PC12 cells (C) transfected to produce GFP-Histone alone (GFP-His) or GFP-Histone and EGLN3 (EGLN3). The SDH inhibitors 3-NPA (300 t-IM), MA (300 I-LM), or TTFA (200 ˜M) were added where indicated. White arrows indicate apoptotic nuclei, which were quantitated in (D) as percent of GFP-positive nuclei. (E) Immunoblot analysis of PC12 cells treated with the indicated chemicals or vehicle (C). (F) Percent of GFP-positive PC12 nuclei undergoing apoptosis after transfection to produce GFP-Histone alone (GFP-His) or GFP-Histone and EGLN3 (EGLN3) in the presence or absence of SDH inhibitors. 100 μM AA was also present where indicated. (G) Percent of GFP-positive PC 12 nuclei undergoing apoptosis after transfection with the indicated siRNAs and a plasmid encoding GFP-Histone followed by treatment with NGF for 5 days (‘+NGF’), which was then withdrawn for 24 hours (‘−NGF’). […]
(§2) Undifferentiated PC12 cells were plated onto collagen-coated 6-well plates 1 day before transfection with LIPOFECTAMINE 2000 reagent (Invitrogen) according to the manufacturer's instructions. […] Nuclei that were condensed or fragmented were scored as apoptotic. Approximately 400 cells were scored for each set of conditions and all assays were performed in triplicate.

EGLN3 = target: T1, EGLN3 (Homo sapiens, UniProt Q9H6Z9); experiment: EGLN3 hydroxylation assay: HIF1α-derived peptide, capture of 35S-labeled pVHL; format: biochemical; conditions: increasing amount of succinate; EGLN3 in vitro translate
T1 construct: HA; made in house; host or cells: in vitro translation in reticulocyte lysate
T1 sequence (Q9H6Z9 whole entry): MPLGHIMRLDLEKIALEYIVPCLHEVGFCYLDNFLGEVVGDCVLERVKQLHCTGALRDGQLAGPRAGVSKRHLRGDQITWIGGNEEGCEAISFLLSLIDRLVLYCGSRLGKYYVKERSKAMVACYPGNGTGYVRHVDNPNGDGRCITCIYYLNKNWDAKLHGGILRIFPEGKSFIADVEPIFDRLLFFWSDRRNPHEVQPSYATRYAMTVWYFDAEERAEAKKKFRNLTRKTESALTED

PC12 cells [2] = experiment: ROS analysis by FACS with CM-H2DCFDA; format: cell-based, rat; conditions: 100 μM AA
Procedure: (B) FACS profiles of PC12 cells stained with the ROS-sensitive dye CM-H2DCFDA after treatment with the indicated SDH inhibitors or the ROS-inducing agent Rotenone (Ro; 20 μM) in the presence or absence of the ROS scavenger ascorbic acid (AA; 100 μM). C=control. (C and D) Representive fluorescent photomicrographs of PC12 cells (C) transfected to produce GFP-Histone alone (GFP-His) or GFP-Histone and EGLN3 (EGLN3). The SDH inhibitors 3-NPA (300 t-IM), MA (300 I-LM), or TTFA (200 ˜M) were added where indicated. White arrows indicate apoptotic nuclei, which were quantitated in (D) as percent of GFP-positive nuclei. (E) Immunoblot analysis of PC12 cells treated with the indicated chemicals or vehicle (C). (F) Percent of GFP-positive PC12 nuclei undergoing apoptosis after transfection to produce GFP-Histone alone (GFP-His) or GFP-Histone and EGLN3 (EGLN3) in the presence or absence of SDH inhibitors. 100 μM AA was also present where indicated. (G) Percent of GFP-positive PC 12 nuclei undergoing apoptosis after transfection with the indicated siRNAs and a plasmid encoding GFP-Histone followed by treatment with NGF for 5 days (‘+NGF’), which was then withdrawn for 24 hours (‘−NGF’).
PC12 cells were incubated for 1 hr with 5 μM CM-H2DCFDA (Molecular Probes), harvested, resuspended at 10^6 cells/ml in PBS supplemented with 7% FBS, and analyzed by FACS.

PC12 cells [3] = experiment: EGLN3-induced apoptosis in transfected undifferentiated PC12 cells (GFP-Histone nuclei scoring); format: cell-based, rat; conditions: coadministration of 100 μM AA with SDH inhibitors
Procedure: as §1, with “indicated.” for “indicated. (G) Percent of GFP-positive PC 12 nuclei undergoing apoptosis after transfection with the indicated siRNAs and a plasmid encoding GFP-Histone followed by treatment with NGF for 5 days (‘+NGF’), which was then withdrawn for 24 hours (‘−NGF’).”
as §2, with “triplicate. […]” for “triplicate.”

HIF2α = experiment: Immunoblot analysis of HIF2α in 786-O cells; format: cell-based, human; conditions: 786-O cells treated with PKC inhibitor
Description: (A and B) Immunoblot analysis of 786-O cells treated with the PKC inhibitor GF109230X.
Twenty μg of nuclear extract per lane, prepared using a NE-PER extraction kit (Pierce Biotechnology, Inc., Rockford Ill.) and measured by the Bradford assay, was resolved on 10% or 12% SDS-PAGE gels and transferred to nitrocellulose membrane (Bio-Rad Laboratories, Hercules Calif.) to detect endogenous JunB and HIF2α. After blocking in TBS with 5% nonfat milk, the membranes were probed with anti-JunB monoclonal antibody (C-11; Santa Cruz Biotechnology, Inc., Santa Cruz Calif.) or anti-HIF2α rabbit polyclonal antibody (NB100-122; Novus Biologicals, Inc., Littleton Colo.). Bound protein was detected with a Horseradish Peroxidase (HRP)-conjugated secondary antibodies and an enhanced chemiluminesence kit (Pierce).

JunB = experiment: Immunoblot analysis of JunB in 786-O renal carcinoma subclones; format: cell-based, human; conditions: 786-O cells treated with PKC inhibitor
Procedure: FIG. 2: (A) Immunoblot analysis of 786-O VHL(−/−) renal carcinoma cells retrovirally infected to produce the indicated short hairpin RNAs (shRNA) or wild-type pVHL (VHL). (B) Immunoblot analyis of RC3 cells and WT7 cells; where indicated, WT7 cells were treated with DFO or infected to produce HIF2α P405A; P531A or with empty retrovirus. (C) Immunoblot analysis of indicated 786-O subclones grown in presence or absence of DFO; (*)=non-specific band. (D) Immunoblot analysis of A498 and 786-O cells transfected to produce the indicated HA-pVHL variants or with empty vector. Arrow indicates a slowly migrating form of aPKC. (E) In vitro aPKC activity. Anti-aPKC immunoprecipitates of the indicated cell lines under antibody excess conditions were incubated with a peptidic aPKC substrate in the presence of ^32P-γ-ATP. Shown are incorporated ^32P values. (F) Immunoblot analysis of 786-O cells treated with the PKC inhibitor GF109230X.
Twenty μg of nuclear extract per lane, prepared using a NE-PER extraction kit (Pierce Biotechnology, Inc., Rockford Ill.) and measured by the Bradford assay, was resolved on 10% or 12% SDS-PAGE gels and transferred to nitrocellulose membrane (Bio-Rad Laboratories, Hercules Calif.) to detect endogenous JunB and HIF2α. […] Bound protein was detected with a Horseradish Peroxidase (HRP)-conjugated secondary antibodies and an enhanced chemiluminesence kit (Pierce).

[4] = SDH inhibitors 300 μM, NGF withdrawn for 24 hours

O=C(O)CC[N+](=O)[O-] [3-NPA, 3-nitroproprionic acid]
Apoptosis after NGF withdrawal (PC12 cells [1]; [4]): diminished apoptosis

[Cl][Co][Cl] [cobalt chloride]
Apoptosis after NGF withdrawal (PC12 cells [1]; 100 μM CoCl2 during NGF withdrawal, 24 hours): decreased

O=C(O)CCC(=O)O [succinate]
EGLN3 hydroxylase activity (EGLN3): diminished

O=C(O)CC(=O)O [MA, malonic acid]
Apoptosis after NGF withdrawal (PC12 cells [1]; [4]): diminished apoptosis

O=C(O)CCC(=O)C(=O)O [2-OG, 2-oxoglutarate]
Apoptosis after NGF withdrawal in SDH D siRNA-transfected cells (PC12 cells [1]; 0.5 mM 2-oxoglutarate added to the media 24 hours before NGF withdrawal): partially restored

O=C1O[C@H]([C@@H](O)CO)C(O)=C1O [ascorbic acid]
ROS induction by SDH inhibitors (PC12 cells [2]): blocking ROS induction
Effect on the action of the SDH inhibitors on EGLN3-induced apoptosis (PC12 cells [3]): failed to mitigate

CN(C)CCCn1cc(C2=C(c3c[nH]c4ccccc34)C(=O)NC2=O)c2ccccc21 [GF109203X]
HIF2α levels (HIF2α): does not affect
JunB levels (JunB): downregulated
